How the values were obtained:
Type in all cases: in vivo
[1] = system: Monocotyledonous and dicotyledonous weed seeds and main crop seeds; test: Post-emergence test experiment, other weeds and crops (Table 4, 1000 g a.i./ha); conditions: 3 weeks in greenhouse, fresh weight inhibition
How it was run: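 Weed and crop seeds (wheat, corn, rice, soybean, cotton, oilseed, millet, sorghum) sown in soil pots in a greenhouse and sprayed at 2-3 leaf stage, 2 weeks after sowing. Compound in acetone/tween-80 with methyl oleate concentrate (1.5 L/ha) as synergist. Effect recorded as fresh-weight growth inhibition rate.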

Digitaria sanguinalis = test: Post-emergence test experiment, Digitaria sanguinalis; conditions: 1000 g a.i./ha, 3 weeks in greenhouse, fresh weight inhibition
How it was run: (§1)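 Read-out is fresh weight inhibition rate, taken 3 weeks after spraying. Treatment was applied to plants at the 2-3 leaf stage, grown from seed under 0.5-2 cm soil in greenhouse pots. Spray solution contained acetone, tween-80 and methyl oleate emulsible concentrate at 1.5 liters per hectare.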

Echinochloa crusgalli = test: Post-emergence test experiment, Echinochloa crusgalli; conditions: 1000 g a.i./ha, 3 weeks in greenhouse, fresh weight inhibition
How it was run: as §1

SMILES | Activity level (growth inhibition rate), Abutilon theophrasti Medic. [1] | Activity level (growth inhibition rate), Galium aparine [1] | Activity level (growth inhibition rate), Monochoria Vaginalis [1] | Activity level (growth inhibition rate), Digitaria sanguinalis (Digitaria sanguinalis) | Activity level (growth inhibition rate), Echinochloa crusgalli (Echinochloa crusgalli)
CC(Oc1nc(F)c(Cl)c(N)c1Cl)C(=O)OCc1cccc(Br)c1 (centres unmarked) [Compound 2-322] | 5 (Level 5: the growth inhibition rate is greater than 85%) | 5 (Level 5: the growth inhibition rate is greater than 85%) | 5 (Level 5: the growth inhibition rate is greater than 85%) | 5 (Level 5: the growth inhibition rate is greater than 85%) | 5 (Level 5: the growth inhibition rate is greater than 85%)
CC(Oc1nc(F)c(Cl)c(N)c1Cl)C(=O)OC(N)C(=O)O (centres unmarked) [Compound 2-371] | 5 (Level 5: the growth inhibition rate is greater than 85%) | 5 (Level 5: the growth inhibition rate is greater than 85%) | 5 (Level 5: the growth inhibition rate is greater than 85%) | 5 (Level 5: the growth inhibition rate is greater than 85%) | 5 (Level 5: the growth inhibition rate is greater than 85%)
Cc1ccc(CSC(=O)C(C)Oc2nc(F)c(Cl)c(N)c2Cl)cc1 (centres unmarked) [Compound 2-307] | 5 (Level 5: the growth inhibition rate is greater than 85%) | 5 (Level 5: the growth inhibition rate is greater than 85%) | 5 (Level 5: the growth inhibition rate is greater than 85%) | 5 (Level 5: the growth inhibition rate is greater than 85%) | 5 (Level 5: the growth inhibition rate is greater than 85%)
C[C@@H](Oc1nc(F)c(Cl)c(N)c1Cl)C(=O)SCc1ccc(C#N)cc1 [Compound 2-338] | 5 (Level 5: the growth inhibition rate is greater than 85%) | 5 (Level 5: the growth inhibition rate is greater than 85%) | 5 (Level 5: the growth inhibition rate is greater than 85%) | 5 (Level 5: the growth inhibition rate is greater than 85%) | 5 (Level 5: the growth inhibition rate is greater than 85%)
CCCCC(C)SC(=O)[C@@H](C)Oc1nc(F)c(Cl)c(N)c1Cl (some centres unmarked) [Compound 2-114] | 5 (Level 5: the growth inhibition rate is greater than 85%) | 5 (Level 5: the growth inhibition rate is greater than 85%) | 5 (Level 5: the growth inhibition rate is greater than 85%) | 5 (Level 5: the growth inhibition rate is greater than 85%) | 5 (Level 5: the growth inhibition rate is greater than 85%)
CC(Oc1nc(F)c(Cl)c(N)c1Cl)C(=O)[S-].C[N+](C)(C)C (centres unmarked) [Compound 2-4] | 5 (Level 5: the growth inhibition rate is greater than 85%) | 5 (Level 5: the growth inhibition rate is greater than 85%) | 5 (Level 5: the growth inhibition rate is greater than 85%) | 5 (Level 5: the growth inhibition rate is greater than 85%) | 5 (Level 5: the growth inhibition rate is greater than 85%)
Cc1cc(OC(=O)[C@@H](C)Oc2nc(F)c(Cl)c(N)c2Cl)n(C)n1 [Compound 2-352] | 5 (Level 5: the growth inhibition rate is greater than 85%) | 5 (Level 5: the growth inhibition rate is greater than 85%) | 5 (Level 5: the growth inhibition rate is greater than 85%) | 5 (Level 5: the growth inhibition rate is greater than 85%) | 5 (Level 5: the growth inhibition rate is greater than 85%)
CCC(CC)OC(=O)[C@@H](C)Oc1nc(F)c(Cl)c(N)c1Cl [Compound 2-97] | 5 (Level 5: the growth inhibition rate is greater than 85%) | 5 (Level 5: the growth inhibition rate is greater than 85%) | 5 (Level 5: the growth inhibition rate is greater than 85%) | 5 (Level 5: the growth inhibition rate is greater than 85%) | 5 (Level 5: the growth inhibition rate is greater than 85%)
CC(Oc1nc(F)c(Cl)c(N)c1Cl)C(=O)OCC(=O)N(C)C (centres unmarked) [Compound 2-289] | 5 (Level 5: the growth inhibition rate is greater than 85%) | 5 (Level 5: the growth inhibition rate is greater than 85%) | 5 (Level 5: the growth inhibition rate is greater than 85%) | 5 (Level 5: the growth inhibition rate is greater than 85%) | 5 (Level 5: the growth inhibition rate is greater than 85%)
CCCCCCC(C)SC(=O)[C@@H](C)Oc1nc(F)c(Cl)c(N)c1Cl (some centres unmarked) [Compound 2-164] | 5 (Level 5: the growth inhibition rate is greater than 85%) | 5 (Level 5: the growth inhibition rate is greater than 85%) | 5 (Level 5: the growth inhibition rate is greater than 85%) | 5 (Level 5: the growth inhibition rate is greater than 85%) | 5 (Level 5: the growth inhibition rate is greater than 85%)
COC(=O)[C@@H](C)Oc1nc(C)c(Cl)c(N)c1Cl [Compound 2-32] | 5 (Level 5: the growth inhibition rate is greater than 85%) | 5 (Level 5: the growth inhibition rate is greater than 85%) | 5 (Level 5: the growth inhibition rate is greater than 85%) | 5 (Level 5: the growth inhibition rate is greater than 85%) | 5 (Level 5: the growth inhibition rate is greater than 85%)
CC(Oc1nc(F)c(Cl)c(N)c1Cl)C(=O)OC[N+](=O)[O-] (centres unmarked) [Compound 2-268] | 5 (Level 5: the growth inhibition rate is greater than 85%) | 5 (Level 5: the growth inhibition rate is greater than 85%) | 5 (Level 5: the growth inhibition rate is greater than 85%) | 5 (Level 5: the growth inhibition rate is greater than 85%) | 5 (Level 5: the growth inhibition rate is greater than 85%)
CCCCCCCCSC(=O)[C@@H](C)Oc1nc(F)c(Cl)c(N)c1Cl [Compound 2-156] | 5 (Level 5: the growth inhibition rate is greater than 85%) | 5 (Level 5: the growth inhibition rate is greater than 85%) | 5 (Level 5: the growth inhibition rate is greater than 85%) | 5 (Level 5: the growth inhibition rate is greater than 85%) | 5 (Level 5: the growth inhibition rate is greater than 85%)
CCC(C)COC(=O)[C@@H](C)Oc1nc(F)c(Cl)c(N)c1Cl (some centres unmarked) [Compound 2-87] | 5 (Level 5: the growth inhibition rate is greater than 85%) | 5 (Level 5: the growth inhibition rate is greater than 85%) | 5 (Level 5: the growth inhibition rate is greater than 85%) | 5 (Level 5: the growth inhibition rate is greater than 85%) | 5 (Level 5: the growth inhibition rate is greater than 85%)
COC(=O)C(NC(=O)OC(C)(C)C)OC(=O)C(C)Oc1nc(F)c(Cl)c(N)c1Cl (centres unmarked) [Compound 2-372] | 5 (Level 5: the growth inhibition rate is greater than 85%) | 5 (Level 5: the growth inhibition rate is greater than 85%) | 5 (Level 5: the growth inhibition rate is greater than 85%) | 5 (Level 5: the growth inhibition rate is greater than 85%) | 5 (Level 5: the growth inhibition rate is greater than 85%)
C[C@@H](Oc1nc(F)c(Cl)c(N)c1Cl)C(=O)OCc1ccccn1 [Compound 2-342] | 5 (Level 5: the growth inhibition rate is greater than 85%) | 5 (Level 5: the growth inhibition rate is greater than 85%) | 5 (Level 5: the growth inhibition rate is greater than 85%) | 5 (Level 5: the growth inhibition rate is greater than 85%) | 5 (Level 5: the growth inhibition rate is greater than 85%)

— patent US12304890B2, “R-type pyridyloxycarboxylic acid, salt and ester derivative thereof, and preparation method therefor, and herbicidal composition and application thereof” (Qingdao Kingagroot Chemical Compound Co., Ltd., priority 2018, dated 2025)
